{"source": "patent US6875748B2", "about": "“Compositions and methods for in vivo delivery of polynucleotide-based therapeutics” (Vical Incorporated, priority 2000, dated 2005)", "key": {"mouse quadriceps muscle [1]": {"tested_on": "mouse quadriceps muscle", "assay": "Luciferase expression in mouse quadriceps muscle after i.m. injection of plasmid VR1255 with auxiliary agents", "conditions": "for ability to enhance in vivo expression relative to identical composition without the compound: mouse; for luciferase expression versus 150 mM sodium phosphate alone: day 7"}, "mouse quadriceps muscle [2]": {"tested_on": "mouse quadriceps muscle", "assay": "Luciferase expression in mouse quadriceps muscle 7 days after i.m. injection of plasmid VR1223 in salt solutions", "format": "in vivo", "design": "lux: unit: ng/muscle", "conditions": "for ng Lux/Muscle: 50 μg VR1223 in 50 μl; for ng Lux/Muscle / Fold Saline: salts at 150 mM, day 7; for luciferase expression compared with saline (words): 150 mM solutions, VR1223, day 7; for lux: 7-day luciferase expression, VR1223; for Fold Saline: relative to saline"}, "pH of the salt solutions": {"assay": "pH of the salt solutions", "format": "physicochemical", "conditions": "150 mM unless otherwise indicated"}, "[3]": {"assay": "Osmolarity of the salt solutions", "format": "physicochemical", "conditions": "150 mM unless otherwise indicated"}}, "data": [{"molecule": "C[C@H](CCC(=O)NCCC[N+](C)(C)CCCS(=O)(=O)[O-])[C@H]1CC[C@H]2[C@@H]3[C@H](O)C[C@@H]4C[C@H](O)CC[C@]4(C)[C@H]3C[C@H](O)[C@]12C", "note": "[CHAPS, 3[(3-Cholamidopropyl)dimethylammonio]-1-propanesulfonate]", "values": [{"measurement": "ability to enhance in vivo expression relative to identical composition without the compound", "setting": "mouse quadriceps muscle [1]", "result": "no ability to enhance"}]}, {"molecule": "[Ca+2].[Cl-].[Cl-]", "note": "[Calcium Chloride]", "values": [{"measurement": "ng Lux/Muscle", "setting": "mouse quadriceps muscle [2]", "result": 0.3, "unit": "ng/Muscle"}, {"measurement": "luciferase expression compared with saline (words)", "setting": "mouse quadriceps muscle [2]", "result": "no ability to enhance"}, {"measurement": "lux", "setting": "mouse quadriceps muscle [2]; Table III-A", "result": 0.3}, {"measurement": "lux", "setting": "mouse quadriceps muscle [2]; Table III-B", "result": 0.3}, {"measurement": "Fold Saline", "setting": "mouse quadriceps muscle [2]", "result": "<0.1", "unit": "Fold"}, {"measurement": "pH", "setting": "pH of the salt solutions", "result": 5.5}, {"measurement": "Osm", "setting": "[3]", "result": 362, "unit": "mmol/kg"}]}, {"molecule": "C[S+](C)[O-]", "note": "[DMSO, dimethylsulfoxide]", "values": [{"measurement": "luciferase expression versus 150 mM sodium phosphate alone", "setting": "mouse quadriceps muscle [1]", "result": "significantly increased expression"}]}, {"molecule": "O=C(O)CN(CCN(CC(=O)O)CC(=O)O)CC(=O)O", "note": "[EDTA, ethylenediamine tetraacetic acid]", "values": [{"measurement": "luciferase expression versus 150 mM sodium phosphate alone", "setting": "mouse quadriceps muscle [1]", "result": "significantly increased expression"}]}, {"molecule": "O=C(O)CN(CCOCCOCCN(CC(=O)O)CC(=O)O)CC(=O)O", "note": "[EGTA]", "values": [{"measurement": "ability to enhance in vivo expression relative to identical composition without the compound", "setting": "mouse quadriceps muscle [1]", "result": "no ability to enhance"}]}, {"molecule": "[Cl][Fe][Cl]", "note": "[Ferrous Chloride]", "values": [{"measurement": "ng Lux/Muscle", "setting": "mouse quadriceps muscle [2]", "result": 0.0, "unit": "ng/Muscle"}, {"measurement": "luciferase expression compared with saline (words)", "setting": "mouse quadriceps muscle [2]", "result": "no ability to enhance"}, {"measurement": "lux", "setting": "mouse quadriceps muscle [2]; Table III-A", "result": 0.0}, {"measurement": "lux", "setting": "mouse quadriceps muscle [2]; Table III-B", "result": 0.0}, {"measurement": "Fold Saline", "setting": "mouse quadriceps muscle [2]", "result": "<0.1", "unit": "Fold"}, {"measurement": "pH", "setting": "pH of the salt solutions", "result": 5.0}, {"measurement": "Osm", "setting": "[3]", "result": 362, "unit": "mmol/kg"}]}, {"molecule": "CCCCCCC(=O)N(C)C[C@H](O)[C@@H](O)[C@H](O)[C@H](O)CO", "note": "[MEGA 7, heptanoyl-N-methyl-glucamide]", "values": [{"measurement": "ability to enhance in vivo expression relative to identical composition without the compound", "setting": "mouse quadriceps muscle [1]", "result": "no ability to enhance"}]}, {"molecule": "CCCCCCCC(=O)N(C)C[C@H](O)[C@@H](O)[C@H](O)[C@H](O)CO", "note": "[MEGA 8, octanyol-N-methyl-glucamide]", "values": [{"measurement": "ability to enhance in vivo expression relative to identical composition without the compound", "setting": "mouse quadriceps muscle [1]", "result": "no ability to enhance"}]}, {"molecule": "CCCCCCCCC(=O)N(C)C[C@H](O)[C@@H](O)[C@H](O)[C@H](O)CO", "note": "[MEGA 9, nonanoyl-N-methyl-glucamide]", "values": [{"measurement": "ability to enhance in vivo expression relative to identical composition without the compound", "setting": "mouse quadriceps muscle [1]", "result": "no ability to enhance"}]}, {"molecule": "[Cl-].[Cl-].[Mg+2]", "note": "[Magnesium Chloride]", "values": [{"measurement": "ng Lux/Muscle", "setting": "mouse quadriceps muscle [2]", "result": 1, "unit": "ng/Muscle"}, {"measurement": "luciferase expression compared with saline (words)", "setting": "mouse quadriceps muscle [2]", "result": "no ability to enhance"}, {"measurement": "lux", "setting": "mouse quadriceps muscle [2]; Table III-A", "result": 1}, {"measurement": "lux", "setting": "mouse quadriceps muscle [2]; Table III-B", "result": 1}, {"measurement": "Fold Saline", "setting": "mouse quadriceps muscle [2]", "result": "<0.1", "unit": "Fold"}, {"measurement": "pH", "setting": "pH of the salt solutions", "result": 5.5}, {"measurement": "Osm", "setting": "[3]", "result": 360, "unit": "mmol/kg"}]}, {"molecule": "[Cl-].[K+]", "note": "[Potassium Chloride]", "values": [{"measurement": "ng Lux/Muscle", "setting": "mouse quadriceps muscle [2]", "result": 124, "unit": "ng/Muscle"}, {"measurement": "luciferase expression compared with saline (words)", "setting": "mouse quadriceps muscle [2]", "result": "no ability to enhance"}, {"measurement": "lux", "setting": "mouse quadriceps muscle [2]; Table III-A", "result": 124}, {"measurement": "lux", "setting": "mouse quadriceps muscle [2]; Table III-B", "result": 124}, {"measurement": "Fold Saline", "setting": "mouse quadriceps muscle [2]", "result": 1.0, "unit": "Fold"}, {"measurement": "pH", "setting": "pH of the salt solutions", "result": 5.5}, {"measurement": "Osm", "setting": "[3]", "result": 280, "unit": "mmol/kg"}]}, {"molecule": "O=P(O)(O)O", "note": "[Potassium Phosphate]", "values": [{"measurement": "ng Lux/Muscle", "setting": "mouse quadriceps muscle [2]", "result": 449, "unit": "ng/Muscle"}, {"measurement": "luciferase expression compared with saline (words)", "setting": "mouse quadriceps muscle [2]", "result": "stimulated expression just as well as solution of 150 mM sodium phosphate"}, {"measurement": "lux", "setting": "mouse quadriceps muscle [2]; Table III-A", "result": 449}, {"measurement": "lux", "setting": "mouse quadriceps muscle [2]; Table III-B", "result": 449}, {"measurement": "Fold Saline", "setting": "mouse quadriceps muscle [2]", "result": 3.8, "unit": "Fold"}, {"measurement": "pH", "setting": "pH of the salt solutions", "result": 7.5}, {"measurement": "Osm", "setting": "[3]", "result": 323, "unit": "mmol/kg"}]}, {"molecule": "CCCCCCCCCCCCOS(=O)(=O)[O-].[Na+]", "note": "[SDS, sodium dodecyl sulfate]", "values": [{"measurement": "luciferase expression versus 150 mM sodium phosphate alone", "setting": "mouse quadriceps muscle [1]", "result": "significantly increased expression"}]}, {"molecule": "CC(=O)[O-].[Na+]", "note": "[Sodium Acetate]", "values": [{"measurement": "ng Lux/Muscle", "setting": "mouse quadriceps muscle [2]", "result": 498, "unit": "ng/Muscle"}, {"measurement": "luciferase expression compared with saline (words)", "setting": "mouse quadriceps muscle [2]", "result": "increased luciferase expression compared with saline"}, {"measurement": "lux", "setting": "mouse quadriceps muscle [2]; Table III-A", "result": 498}, {"measurement": "lux", "setting": "mouse quadriceps muscle [2]; Table III-B", "result": 498}, {"measurement": "Fold Saline", "setting": "mouse quadriceps muscle [2]", "result": 4.1, "unit": "Fold"}, {"measurement": "pH", "setting": "pH of the salt solutions", "result": 6.5}, {"measurement": "Osm", "setting": "[3]", "result": 271, "unit": "mmol/kg"}]}, {"molecule": "OC[C@H]1O[C@H](OC[C@H]2O[C@H](OC[C@H]3O[C@H](O[C@]4(CO)O[C@H](CO)[C@@H](O)[C@@H]4O)[C@H](O)[C@@H](O)[C@@H]3O)[C@H](O)[C@@H](O)[C@H]2O)[C@H](O)[C@@H](O)[C@H]1O", "note": "[Stachyose, stachyose]", "values": [{"measurement": "luciferase expression versus 150 mM sodium phosphate alone", "setting": "mouse quadriceps muscle [1]", "result": "significantly increased expression"}]}, {"molecule": "CCCCCCCCCCCCCCCC[N+](C)(C)CCCS(=O)(=O)[O-]", "note": "[Zwittergent, n-hexadecyl-N,N-dimethyl-3-ammonio-1-propanesulfonate]", "values": [{"measurement": "ability to enhance in vivo expression relative to identical composition without the compound", "setting": "mouse quadriceps muscle [1]", "result": "no ability to enhance"}]}, {"molecule": "OCc1ccccc1", "note": "[benzyl alcohol]", "values": [{"measurement": "ability to enhance in vivo expression relative to identical composition without the compound", "setting": "mouse quadriceps muscle [1]", "result": "no ability to enhance"}]}, {"molecule": "CCCCCCCCCCCCO[C@@H]1O[C@H](CO)[C@@H](O[C@H]2O[C@H](CO)[C@@H](O)[C@H](O)[C@H]2O)[C@H](O)[C@H]1O", "note": "[n-Dodecylmaltoside, n-dodecylmaltoside]", "values": [{"measurement": "ability to enhance in vivo expression relative to identical composition without the compound", "setting": "mouse quadriceps muscle [1]", "result": "no ability to enhance"}]}, {"molecule": "CCCCCCCCO[C@@H]1O[C@H](CO)[C@@H](O)[C@H](O)[C@H]1O", "note": "[n-octylglucoside]", "values": [{"measurement": "ability to enhance in vivo expression relative to identical composition without the compound", "setting": "mouse quadriceps muscle [1]", "result": "no ability to enhance"}]}, {"molecule": "(octyl phenoxy) polyethoxyethanol [IGEPAL CA 630®]", "values": [{"measurement": "luciferase expression versus 150 mM sodium phosphate alone", "setting": "mouse quadriceps muscle [1]", "result": "significantly increased expression"}]}, {"molecule": "Actin", "values": [{"measurement": "ability to enhance in vivo expression relative to identical composition without the compound", "setting": "mouse quadriceps muscle [1]", "result": "no ability to enhance"}]}, {"molecule": "Macrogol-50 stearate [MYRJ 53]", "values": [{"measurement": "ability to enhance in vivo expression relative to identical composition without the compound", "setting": "mouse quadriceps muscle [1]", "result": "no ability to enhance"}]}, {"molecule": "PEG-40 Stearate [MYRJ 52]", "values": [{"measurement": "ability to enhance in vivo expression relative to identical composition without the compound", "setting": "mouse quadriceps muscle [1]", "result": "no ability to enhance"}]}, {"molecule": "octyl phenol ethylene oxide condensate with about 7-8 ethylene oxide units [Triton X-114]", "values": [{"measurement": "luciferase expression versus 150 mM sodium phosphate alone", "setting": "mouse quadriceps muscle [1]", "result": "significantly increased expression"}]}, {"molecule": "octyl phenol ethylene oxide condensate with about 9 ethylene oxide units [Nonidet P40]", "values": [{"measurement": "luciferase expression versus 150 mM sodium phosphate alone", "setting": "mouse quadriceps muscle [1]", "result": "significantly increased expression"}]}, {"molecule": "polyoxyethylene 10 cetyl ether", "values": [{"measurement": "ability to enhance in vivo expression relative to identical composition without the compound", "setting": "mouse quadriceps muscle [1]", "result": "no ability to enhance"}]}, {"molecule": "polyoxyethylene 20 stearyl ether", "values": [{"measurement": "ability to enhance in vivo expression relative to identical composition without the compound", "setting": "mouse quadriceps muscle [1]", "result": "no ability to enhance"}]}, {"molecule": "polyoxyethylene sorbitan monolaurate [Tween 20]", "values": [{"measurement": "luciferase expression versus 150 mM sodium phosphate alone", "setting": "mouse quadriceps muscle [1]", "result": "significantly increased expression"}]}, {"molecule": "polyoxyethylene sorbitan monooleate [Tween 80]", "values": [{"measurement": "luciferase expression versus 150 mM sodium phosphate alone", "setting": "mouse quadriceps muscle [1]", "result": "significantly increased expression"}]}, {"molecule": "polysorbate 40 [Tween-40®]", "values": [{"measurement": "ability to enhance in vivo expression relative to identical composition without the compound", "setting": "mouse quadriceps muscle [1]", "result": "no ability to enhance"}]}, {"molecule": "sorbitan monolaurate [SPAN 20]", "values": [{"measurement": "ability to enhance in vivo expression relative to identical composition without the compound", "setting": "mouse quadriceps muscle [1]", "result": "no ability to enhance"}]}]}
